{"source": "patent US20240424022A1", "about": "“IN VIVO AND EX VIVO METHODS OF MODULATING T CELL EXHAUSTION/DE-EXHAUSTION” (Flagship Pioneering Innovations VI, LLC, priority 2021, published 2024)", "key": {"[1]": {"system": "CD8+ T cells derived from tumors", "experiment": "Flow cytometry of tumor infiltrating T lymphocytes, MC38 syngeneic mouse model", "assay_type": "in vivo", "conditions": "MC38 mice, day after final dose, doses per Table 5, Table 3 numbering", "description": "(§1) The day after the final dose, mice were euthanized, blood was collected by cardiac puncture and the tumors were removed. For all mice, a section of tumor was flash frozen in liquid nitrogen and stored at −80 degrees C. for future analysis; the remainder of the tumor was placed in cold RPMI (with glucose) and processed to generate a single cell suspension for flow cytometry. For a pre-selected subgroup of mice, a sample of the single cell suspension was collected for scRNAseq (3 samples from 5 treatment groups provided 15 samples for 2 runs on a 10× Chromium box). Each tumor was minced with a clean razor blade to the consistency of chopped garlic. The tumor was placed in a digestive enzyme mix (mouse tumor dissociation kit, Miltenyi) and incubated on a dissociator at 37 degrees C. for 45 min (OctoMax). Following dissociation, the slurry was filtered through a 70 μm nylon filter, centrifuged, and the pellet resuspended in Ammonium-Chloride-Potassium (ACK) lysing buffer for 3 minutes to lyse red blood cells. The ACK buffer was neutralized with 10-fold excess PBS and then the cell suspension was centrifuged to concentrate the cells. Cell suspensions from all tumors were stored on ice until analyzed by flow cytometry.\nFor flow cytometry, samples of each cell suspension were incubated at room temperature for one hour with an antibody panel optimized for detection of effector and exhausted T cells (Tables 6 and 7). Prior to intracellular staining, samples were permeabilized and fixed using the eBioscience™ Foxp3 Transcription Factor Staining Buffer Set (ThermoFisher) according to the manufacturer's recommendations. Samples were then incubated for one hour with the intracellular staining mix, then centrifuged and resuspended for flow cytometric analysis. Following compensation measurements using commercial beads, fluorescence minus one (fmo) measurements were performed followed by measurements of all the samples. For each sample, at least 100,000 events were recorded. All analysis for flow cytometry data was performed using FlowJo™ (BD)."}, "T cells": {"system": "T cells", "experiment": "scRNAseq analysis of MC38 tumor single cell suspensions", "assay_type": "in vivo", "conditions": "MC38 syngeneic mouse, versus PBS", "description": "as §1\nAs detailed above, 15 samples of tumor single cell suspension were obtained for single cell RNA sequencing (Table 8). […]"}, "[2]": {"system": "colon adenocarcinoma cell line, MC38", "experiment": "Efficacy study in MC38 syngeneic mice, tumor growth inhibition", "assay_type": "in vivo, mouse", "conditions": "doses per Table 5 (Anti-PD-1 200 ug IP BIWx3, by day 9; Perturbagen 1 10 mg/kg IP QDx10), Table 3 numbering"}}}
{"substance": "pembrolizumab", "values": [{"measurement": "Expression of PD-1 in CD8+ T cells derived from tumors", "setting": "[1]", "value": "reduced"}, {"measurement": "Expression of TIGIT in CD8+ T cells derived from tumors", "setting": "[1]", "value": "reduced"}, {"measurement": "Number of CD8+ T cells in the tumor", "setting": "[1]", "value": "increased"}, {"measurement": "Density of T cells in scRNAseq manifold", "setting": "T cells", "value": "enhanced"}, {"measurement": "Tumor growth inhibition (TGI)", "setting": "[2]", "value": "significant tumor growth inhibition"}]}
